Results on ten molecules are retold here after PMC9785441, “A Broad Spectrum Antiparasitic Activity of Organotin (IV) Derivatives and Its Untargeted Proteomic Profiling Using Leishmania donovani” (Pathogens, 2022).

A word on the CC50: it is the concentration at which the toxic effect on the cells reaches its halfway point. Usually EC50 stands for the concentration giving half of the maximal effect. One may read the IC50 as the point on the concentration scale where inhibition reaches its midpoint.

Bounds are passed on as bounds.

One data set relates to HEK-293T cells. The data set can be described thus: HEK293 cytotoxicity assay (resazurin). The conditions noted are these: human embryonic kidney cells, 48 h, max 4 µM; read-out: CC50 HEK923. It is filed as cell-based. The procedure:
HEK-293T cells were cultured in DMEM (Gibco) supplemented with 10% heat inactivated FBS (Corning) and 1% penicillin-streptomycin (Gibco). Cells were maintained in vented T75 cell culture flasks (Thermo Scientific, Cat. 12-565-349) at 37 °C and 5% CO2, and were passaged every 72 h. […] Compounds were diluted with fresh DMEM (49 µL/well). HEK-293 cells were suspended at 4 × 10^5 cells/mL in DMEM and added to each well (50 µL/well) to give 2 × 10^4 cells/well. Assay plates were incubated at 37 °C and 5% CO2 for 48 h, followed by addition of 20 µL of 0.5 mM resazurin (Alfa Aesar, Cat. B21187) in PBS to each well. […] In each assay plate, cell viability was normalized relative to positive and negative controls. Assays were performed in biological and technical duplicates, and dose–response and CC50 data were generated with GraphPad Prism 5 using a sigmoidal four parameter logistic curve.
For orientation: Resazurin is reduced to fluorescent resorufin, in cell work by metabolically active cells.

Another data set relates to B10R cells. The data set can be described thus: Cytotoxicity to B10R host cells (nuclei count in the amastigote assay). The conditions noted are these: mouse monocyte host cells, 72 h. The format is cell-based. As to the method: For the intracellular amastigote stage assay, L. donovani was incubated at a density of 1 × 10^6 parasites/mL for six days at 29 °C before infection to enrich the proportion of metacyclic promastigotes. B10R monocyte cell lines were cultured in RPMI supplemented with 10% FBS and 1%penicillin/streptomycin at 37 °C in 5% CO2. After 72 h, cells were counted with a hemocytometer and mixed with the six-day-old parasites. […] Plates were incubated at 37 °C and 5% CO2 for 72 h. Cultures were then fixed with 4% formaldehyde solution for 30 min and stained with 0.5 µg/mL DAPI (diamidino-2-phenylindole). Plates were then imaged using an ImageXpress Micro XLS automated high content imager (Molecular Devices, San Jose, CA, USA) using a 10× air objective. A custom image analysis module generated in ImageXpress was used to count the nuclei of host and parasite cells. EC50 values were obtained using the GraphPad Prism 9 Software with biological triplicates.

Data set [1] relates to G. lamblia (WB strain) trophozoites. The data set can be described thus: G. lamblia trophozoite viability assay (CellTiter-Glo). The format is cell-based, Giardia lamblia. Conditions: 48 h. As to the method:
Trophozoites of G. lamblia (WB strain) were maintained in vitro as described in TYI-S-33 medium supplemented with penicillin (100 U/mL) and streptomycin (100 µg/mL). Cells were harvested during the logarithmic phase of the growth for antiparasitic assessment. Test compounds were serially diluted and transferred to a white solid bottomed 96-well tissue culture plate (E&K Scientific, Swedesboro, NJ, USA) followed by addition of 5000 G. lamblia trophozoites for a final volume of 100 µL of TYI-S-33 medium and a final concentration of compounds ranging from 50.0 to 0.39 µM. Metronidazole was used as a positive control and assay plates were incubated for 48 h at 37 °C in the GasPak EZ Anaerobic Gas Generating Pouch System (VWR). Parasite viability was measured in triplicate using the CellTiter-Glo luminescence kit in an Envision plate reader. EC50 values were obtained using the GraphPad Prism 9 Software.
For orientation: Cellular ATP, detected with luciferase, serves as a proxy for viable cell number.

Data set [2] concerns L. donovani promastigotes. The data set can be described thus: L. donovani promastigote viability assay (resazurin). The format is cell-based, Leishmania donovani. Conditions: for EC50: promastigotes, 48 h, read-out: EC50 L. donovani (pro). As to the method: Promastigotes of L. donovani from late log phase culture were diluted to 2.0 × 10^6/mL in M-199 containing 10% FBS, 25 mM HEPES (Gibco 15630-080), 100 µM adenine, 12 mM NaHCO3, 10 µM folic acid, 1% penicillin/streptomycin (Gibco 15140-122) as described previously. Compounds and controls were transferred from compound plates to 384 well assay plates with the use of an acoustic transfer system (ATS, EDC Biosystems, Fremont, CA, USA). Promastigotes were incubated with compounds at 29 °C for 48 h. To measure parasite viability, resazurin sodium salt (7-hydroxy-3H-phenoxazin3-one 10-oxide) was dissolved in PBS and added to each well at a volume of 5 µL (final concentration of 44 µM). After incubating for 4 h at room temperature, fluorescence (ex 571 nm/em 584 nm) was recorded with an Envision (Perkin Elmer, Waltham, MA, USA) microplate fluorescence/luminescence reader. […] For positive and negative control amphotericin B and 0.5% DMSO was used, respectively. Dose response and EC50 analyses were obtained using GraphPad Prism 9 Software (Graph Pad Software Inc., San Diego, CA, USA).

For data set [3], the system named is N. fowleri (KUL strain) trophozoites. As to the kind of experiment: N. fowleri trophozoite viability assay (CellTiter-Glo). The format is cell-based, Naegleria fowleri. The conditions noted are these: 48 h. The procedure: N. fowleri (KUL strain) was cultured in Nelson’s medium supplemented with 10% FBS and kept at 37 °C. For all experiments, trophozoites were harvested during the logarithmic phase of growth. Test compounds were serially diluted and transferred to a white solid bottomed 96-well tissue culture plate (E&K Scientific, Swedesboro, NJ, USA) followed by addition of 10,000 N. fowleri trophozoites in Nelson’s medium in a final volume of 100 µL and a final concentration of compounds ranging from 50 to 0.39 µM. Amphotericin B was used as positive control and assay plates were incubated for 48 h at 37 °C. Parasite viability was measured as described for E. histolytica and G. lamblia. EC50 values were obtained using the GraphPad Prism 9 Software.

Another data set relates to C2C12 cells. As to the kind of experiment: Cytotoxicity to C2C12 host cells. It is filed as cell-based. Conditions: mouse myoblast host cells, 72 h. As to the method: Mouse C2C12 myoblasts (ATCC CRL-1772) were cultivated in RPMI 1640 medium supplemented with 5% FBS and kept at 37 °C and 5% CO2. T. cruzi CAI-72 trypomastigotes were obtained from the supernatant of C2C12 cells infected four to seven days previously. For the assay, 500 C2C12 cells were mixed with 7500 T. cruzi parasites and seeded into 384-well plates at a 50 µL final volume. Test compounds and reference drugs (Benznidazole and K11777) were pre-spotted into the 384 well black bottom plates prior to the addition of cells and parasites with final assay concentration of 20 µM to 0.02 µM. The plates were incubated at 37 °C^, 5% CO2 for 72 h. Cultures were then fixed with 4% formaldehyde and 0.5 µg/mL DAPI (diamidino-2-phenylindole) was added for staining nucleic acids. Plates were kept protected from light for 1 h and then imaged in an ImageXpress Micro XLS automated high content imager (Molecular Devices, San Jose, CA, USA). Imaging and data analysis were performed as described for L. donovani amastigotes on biological triplicates.

Turning to `COc1ccc(NC(=O)CCC(=O)[O][Sn]([CH]2CCCCC2)([CH]2CCCCC2)[CH]2CCCCC2)cc1` [MS26Cy3], the CC50 in the data set with HEK-293T cells and in the data set with B10R cells was 0.11 µM in each case. Further, the EC50 is above 10 µM in data set [1] and 7.5 µM in data set [3]. Moreover, the IC50 in data set [2] (Figure S1 dose response curves, RFU, read-out: IC50 against the promastigotes of L. donovani) amounted to 0.6 µM.
For `COc1ccc(NC(=O)CCC(=O)[O][Sn]([c]2ccccc2)([c]2ccccc2)[c]2ccccc2)cc1` [MS26Ph3], the CC50 came to 0.36 µM with HEK-293T cells, 0.29 µM in the data set with B10R cells and 0.41 µM in the data set with C2C12 cells. The EC50 in data set [1] was 5.3 µM; in data set [2] it was 0.39 µM; in data set [3], 3.2 µM.
For the molecule `CCC[CH2][Sn]([CH2]CCC)([CH2]CCC)[O]C(=O)CCC(=O)Nc1ccc(OC)cc1` [MS26Bu3], the figures for the CC50 in the data set with HEK-293T cells, in the data set with B10R cells and in the data set with C2C12 cells were 0.14 µM, 0.17 µM and 0.22 µM, respectively. For the same molecule, the EC50 came to 1.03 µM in data set [1], 0.22 µM in data set [2] and 1.5 µM in data set [3].
As to `C=[CH][Sn]([CH]=C)([O]C(=O)CCC(=O)Nc1ccc(OC)cc1)[O]C(=O)CCC(=O)Nc1ccc(OC)cc1` [MS26vin2], the cytotoxic concentration (CC50) with HEK-293T cells is above 4 µM; with B10R cells, above 20 µM; in the data set on C2C12 cells, above 20 µM. The EC50 in data set [1] is above 10 µM; in data set [2], above 20 µM; in data set [3] it was above 10 µM.
As to `COc1ccc(NC(=O)CCC(=O)[O][Sn]([CH3])([CH3])[CH3])cc1` [MS26Me3], the values for the CC50 in the data set with HEK-293T cells, in the data set with B10R cells and in the data set with C2C12 cells were 1.24 µM, 4.87 µM and 9.41 µM, respectively. Besides, the EC50 was above 10 µM in data set [1], above 20 µM in data set [2] and above 10 µM in data set [3].
For `COc1ccc(NC(=O)CCC(=O)[O-])cc1.[Na+]` [MS26Na, sodium 4-(4-methoxyphenylamino)-4 oxobutanoate], the CC50 is above 4 µM in the data set on HEK-293T cells, 4.55 µM with B10R cells and 1.61 µM in the data set on C2C12 cells. Besides, the concentration for a half-maximal effect (EC50) in data set [1] was above 10 µM; in data set [2], 0.17 µM; in data set [3], above 10 µM.
On to `COc1ccc(NC(=O)CCC(=O)O)cc1` [MS26, 4-(4-methoxyphenylamino)-4 oxobutanoic acid], for which the values for the EC50 in data set [1] (Giardia duodenalis), in data set [2] and in data set [3] (Naegleria fowleri) were above 10 µM, above 20 µM and above 10 µM, respectively. In the data set with C2C12 cells, the CC50 is above 20 µM.
With `CCC[CH2][Sn]([CH2]CCC)([O]C(=O)CCC(=O)Nc1ccc(OC)cc1)[O]C(=O)CCC(=O)Nc1ccc(OC)cc1` [MS26Bu2], the CC50 with HEK-293T cells stood at 0.37 µM; in the data set with B10R cells it was 1.06 µM; in the data set with C2C12 cells, 0.14 µM. Moreover, the EC50 in data set [1] is above 10 µM; in data set [2], 0.76 µM; in data set [3], above 10 µM.
`C[CH2][Sn]([CH2]C)([CH2]C)[O]C(=O)CCC(=O)Nc1ccc(OC)cc1` [MS26Et3]: the values for the EC50 in data set [1], in data set [2] and in data set [3] were 8 µM, 0.21 µM and 1.4 µM, respectively. For the same molecule, it took 2.79 µM to reach half-maximal cytotoxicity with C2C12 cells (CC50).
Turning to `CCC[CH2][Sn]([Cl])([Cl])[O]C(=O)CCC(=O)Nc1ccc(OC)cc1` [MS26BuSnCl2], the figures for the CC50 in the data set on HEK-293T cells, in the data set with B10R cells and with C2C12 cells were above 4 µM, 0.62 µM and 18.1 µM, respectively. The EC50 was above 10 µM in data set [1], above 20 µM in data set [2] and above 10 µM in data set [3].
